Reference: US20180263996A1, “ARYL SULTAM DERIVATIVES AS RORc MODULATORS” (Genentech, Inc., priority 2015, published 2018)

Each molecule was assayed against T1, RORc (Homo sapiens, UniProt P51449) (assay: In Vitro RORc Ligand Binding Assay). Conditions: IC50 values for RORc.
T1 construct: host or cells: E. coli
T1 sequence (P51449 269-508 limits assumed): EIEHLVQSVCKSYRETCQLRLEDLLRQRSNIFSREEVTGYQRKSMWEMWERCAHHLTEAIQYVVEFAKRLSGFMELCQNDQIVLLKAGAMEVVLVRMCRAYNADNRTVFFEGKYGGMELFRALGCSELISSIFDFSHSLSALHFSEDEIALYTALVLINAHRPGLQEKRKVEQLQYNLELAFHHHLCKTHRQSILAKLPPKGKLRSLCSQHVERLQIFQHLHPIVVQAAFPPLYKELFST
Description: This assay was used to determine a compound's potency in inhibiting activity of RORc by determining, Kiapp, IC50, or percent inhibition values.
On day of the assay, 100 uL of 0.05% CHAPS (in deionized H2O) was added to all wells of the GFB Unifilter plate and allowed soak for 1 h. A wash buffer of 50 mM HEPES (pH 7.4), 150 mM NaCl, and 5 mM MgCl2 was prepared to wash the filter plate. To prepare an assay buffer, BSA was added to the wash buffer to reach 0.01% and DTT was added to reach 1 mM.
The 20× compound stocks were diluted in DMSO with Assay Buffer 4-fold to reach 5× the final test concentration in 25% DMSO (10 uL compound+30 uL Assay Buffer). Solutions were mixed by aspiration several times with a pipette set on 50 uL volume.
For two point screening, 10 mM stock compound solutions were diluted in DMSO to obtain 200 uM (20× the high test concentration) and then diluted 10-fold further to reach 20 uM (20× the low test concentration). The 20× stocks were diluted 4-fold with Assay Buffer (10 uL compound+30 uL Assay Buffer) to reach 5× the test concentrations (50 uM and 5 uM) and 10 uL were added to two assay plates for the duplicate wells. With each concentration tested on 2 plates, each set of 80 compounds used 4 assay plates (1 uM and 10 uM, with n=2).
For 25-hydroxycholesterol in 25% DMSO/75% Assay Buffer; 10 uL per well was used for NSB samples. Wells for Total Binding and No Receptor sample determination contained 10 uL of 25% DMSO/75% Assay Buffer per well.
Add 20 uL to all wells to reach 6 nM final concentration in the assay.
Stock receptor solution was diluted in assay buffer to obtain 1.5 ug/mL in Assay Buffer. 20 uL was added to all wells. For No Receptor samples, 20 uL Assay Buffer was substituted for receptor solution.
Assay plates were 96-well polypropylene V-bottom plates. […] 10 uL of 25% DMSO/75% Assay Buffer was added to Total Binding or No Receptor wells. 10 uL of 5 uM 25-hydroxycholesterol in 25% DMSO/75% Assay Buffer was added to NSB wells. […] 20 uL of 1.5 ug/mL RORc receptor was added to wells (or 40 uL Assay Buffer to No R wells). Following addition to the wells, the plates were incubated 3 h at 25° C.
Using a Packard Filtermate Harvester, the filter plate were washed 4 times following transfer of the incubated samples. Plates were dry-filtered completely (2 h at 50° C. or overnight at room temperature). 50 uL Microscint 0 was added to all wells and read on Topcount protocol Inverted.
Final concentrations were as follows: 50 mM HEPES buffer (pH 7.4); 150 mM NaCl; 1 mM DTT; 5 mM MgCl2; 0.01% BSA; 5% DMSO; 0.6 ug/mL RORc receptor; 6 nM 25-[^3H]hydroxycholesterol. For NSB wells, 1 uM 25-hydroxycholesterol was also present.

| Compound | IC50 [µM] |
| --- | --- |
| CC(NC(=O)c1cn(C)cn1)c1cc(F)c(CN2[C@@H](C)CC[C@H](c3ccccc3)S2(=O)=O)cc1F (stereo in doubt) [Compound 62, N-[1-[2,5-difluoro-4-[[(3S,6R)-3-methyl-1,1-dioxo-6-phenyl-thiazinan-2-yl]methyl]phenyl]ethyl]-1-methyl-imidazole-4-carboxamide] | 0.389 |
| CC(NC(=O)c1cocn1)c1cc(F)c(CN2[C@@H](C)CC[C@H](c3ccccc3)S2(=O)=O)cc1F (stereo in doubt) [Compound 65, N-[1-[2,5-difluoro-4-[[(3S,6R)-3-methyl-1,1-dioxo-6-phenyl-thiazinan-2-yl]methyl]phenyl]ethyl]oxazole-4-carboxamide] | 0.167 |
| Cc1cc(C(=O)NC(C)c2cc(F)c(CN3[C@@H](C)CC[C@H](c4ccccc4)S3(=O)=O)cc2F)on1 (stereo in doubt) [Compound 67, N-[1-[2,5-difluoro-4-[[(3S,6R)-3-methyl-1,1-dioxo-6-phenyl-thiazinan-2-yl]methyl]phenyl]ethyl]-3-methyl-isoxazole-5-carboxamide] | 0.0065 |
| CC(NC(=O)c1cc[nH]n1)c1cc(F)c(CN2[C@@H](C)CC[C@H](c3ccccc3)S2(=O)=O)cc1F (stereo in doubt) [Compound 68, N-[1-[2,5-difluoro-4-[[(3S,6R)-3-methyl-1,1-dioxo-6-phenyl-thiazinan-2-yl]methyl]phenyl]ethyl]-1H-pyrazole-3-carboxamide] | 0.0833 |
| CC(NC(=O)c1ccnn1C)c1cc(F)c(CN2[C@@H](C)CC[C@H](c3ccccc3)S2(=O)=O)cc1F (stereo in doubt) [Compound 69, N-[1-[2,5-difluoro-4-[[(3S,6R)-3-methyl-1,1-dioxo-6-phenyl-thiazinan-2-yl]methyl]phenyl]ethyl]-2-methyl-pyrazole-3-carboxamide] | 0.0745 |
| CC(NC(=O)c1nc(N)n[nH]1)c1cc(F)c(CN2[C@@H](C)CC[C@H](c3ccccc3)S2(=O)=O)cc1F (stereo in doubt) [Compound 71, 3-amino-N-[1-[2,5-difluoro-4-[[(3S,6R)-3-methyl-1,1-dioxo-6-phenyl-thiazinan-2-yl]methyl]phenyl]ethyl]-1H-1,2,4-triazole-5-carboxamide] | 0.0479 |
| CC(NC(=O)c1cncs1)c1cc(F)c(CN2[C@@H](C)CC[C@H](c3ccccc3)S2(=O)=O)cc1F (stereo in doubt) [Compound 72, N-[1-[2,5-difluoro-4-[[(3S,6R)-3-methyl-1,1-dioxo-6-phenyl-thiazinan-2-yl]methyl]phenyl]ethyl]thiazole-5-carboxamide] | 0.0063 |
| Cc1nnc(C(=O)NC(C)c2cc(F)c(CN3[C@@H](C)CC[C@H](c4ccccc4)S3(=O)=O)cc2F)o1 (stereo in doubt) [Compound 73, N-[1-[2,5-difluoro-4-[[(3S,6R)-3-methyl-1,1-dioxo-6-phenyl-thiazinan-2-yl]methyl]phenyl]ethyl]-5-methyl-1,3,4-oxadiazole-2-carboxamide] | 0.0093 |
| CC(NC(=O)c1csc(N)n1)c1cc(F)c(CN2[C@@H](C)CC[C@H](c3ccccc3)S2(=O)=O)cc1F (stereo in doubt) [Compound 78, 2-amino-N-[1-[2,5-difluoro-4-[[(3S,6R)-3-methyl-1,1-dioxo-6-phenyl-thiazinan-2-yl]methyl]phenyl]ethyl]thiazole-4-carboxamide] | 0.215 |
| C[C@H]1CC[C@H](c2ccccc2)S(=O)(=O)N1Cc1cc(F)c([C@@H](CC2COC2)C(N)=O)cc1F [Compound 5, (2R)-2-[2,5-difluoro-4-[[(3S,6R)-3-methyl-1,1-dioxo-6-phenyl-thiazinan-2-yl]methyl]phenyl]-3-(oxetan-3-yl)propanamide] | 0.031 |
| C[C@H]1CC[C@H](c2ccccc2)S(=O)(=O)N1Cc1cc(F)c([C@@H](OC2COC2)C(N)=O)cc1F [Compound 8, (2R)-2-[2,5-difluoro-4-[[(3S,6R)-3-methyl-1,1-dioxo-6-phenyl-thiazinan-2-yl]methyl]phenyl]-2-(oxetan-3-yloxy)acetamide] | 0.031 |
| C[C@H]1CC[C@H](c2ccccc2)S(=O)(=O)N1Cc1cc(F)c([C@H](OC2COC2)C(N)=O)cc1F [Compound 9, (2S)-2-[2,5-difluoro-4-[[(3S,6R)-3-methyl-1,1-dioxo-6-phenyl-thiazinan-2-yl]methyl]phenyl]-2-(oxetan-3-yloxy)acetamide] | 0.0348 |
| C[C@H]1CC[C@H](c2ccccc2)S(=O)(=O)N1Cc1cc(F)c([C@](C)(CO)C(N)=O)cc1F [Compound 11, (2R)-2-[2,5-difluoro-4-[[(3S,6R)-3-methyl-1,1-dioxo-6-phenyl-thiazinan-2-yl]methyl]phenyl]-3-hydroxy-2-methyl-propanamide] | 0.0187 |

Results, then the molecule that gave them:

| IC50 [µM] | Compound |
| --- | --- |
| 0.0083 | CC(NC(=O)c1cncnc1)c1cc(F)c(CN2[C@@H](C)CC[C@H](c3ccccc3)S2(=O)=O)cc1F (stereo in doubt) [Compound 63, N-[1-[2,5-difluoro-4-[[(3S,6R)-3-methyl-1,1-dioxo-6-phenyl-thiazinan-2-yl]methyl]phenyl]ethyl]pyrimidine-5-carboxamide] |
| 0.231 | Cc1ncoc1C(=O)NC(C)c1cc(F)c(CN2[C@@H](C)CC[C@H](c3ccccc3)S2(=O)=O)cc1F (stereo in doubt) [Compound 64, N-[1-[2,5-difluoro-4-[[(3S,6R)-3-methyl-1,1-dioxo-6-phenyl-thiazinan-2-yl]methyl]phenyl]ethyl]-4-methyl-oxazole-5-carboxamide] |
| 0.0073 | COc1cc(C(=O)NC(C)c2cc(F)c(CN3[C@@H](C)CC[C@H](c4ccccc4)S3(=O)=O)cc2F)on1 (stereo in doubt) [Compound 74, N-[1-[2,5-difluoro-4-[[(3S,6R)-3-methyl-1,1-dioxo-6-phenyl-thiazinan-2-yl]methyl]phenyl]ethyl]-3-methoxy-isoxazole-5-carboxamide] |
| 0.0761 | CC(NC(=O)c1cnco1)c1cc(F)c(CN2[C@@H](C)CC[C@H](c3ccccc3)S2(=O)=O)cc1F (stereo in doubt) [Compound 75, N-[1-[2,5-difluoro-4-[[(3S,6R)-3-methyl-1,1-dioxo-6-phenyl-thiazinan-2-yl]methyl]phenyl]ethyl]oxazole-5-carboxamide] |
| 0.003 | CC(NC(=O)c1csnn1)c1cc(F)c(CN2[C@@H](C)CC[C@H](c3ccccc3)S2(=O)=O)cc1F (stereo in doubt) [Compound 79, N-[1-[2,5-difluoro-4-[[(3S,6R)-3-methyl-1,1-dioxo-6-phenyl-thiazinan-2-yl]methyl]phenyl]ethyl]thiadiazole-4-carboxamide] |
| 0.0445 | C[C@H]1CC[C@H](c2ccccc2)S(=O)(=O)N1Cc1ccc(C2(COCC3COC3)CCOCC2)cc1F [Compound 3, (3S,6R)-2-[[2-fluoro-4-[4-(oxetan-3-ylmethoxymethyl)tetrahydropyran-4-yl]phenyl]methyl]-3-methyl-6-phenyl-thiazinane 1,1-dioxide] |
| 0.0318 | C[C@H]1CC[C@H](c2ccccc2)S(=O)(=O)N1Cc1cc(F)c([C@H](CC2COC2)C(N)=O)cc1F [Compound 4, (2S)-2-[2,5-difluoro-4-[[(3S,6R)-3-methyl-1,1-dioxo-6-phenyl-thiazinan-2-yl]methyl]phenyl]-3-(oxetan-3-yl)propanamide] |
| 0.0642 | C[C@H]1CC[C@H](c2ccccc2)S(=O)(=O)N1Cc1cc(F)c([C@H](OC2CCOCC2)C(N)=O)cc1F [Compound 7, (2S)-2-[2,5-difluoro-4-[[(3S,6R)-3-methyl-1,1-dioxo-6-phenyl-thiazinan-2-yl]methyl]phenyl]-2-tetrahydropyran-4-yloxy-acetamide] |
| 0.0354 | C[C@H]1CC[C@H](c2ccccc2)S(=O)(=O)N1Cc1cc(F)c([C@@](C)(CO)C(N)=O)cc1F [Compound 10, (2S)-2-[2,5-difluoro-4-[[(3S,6R)-3-methyl-1,1-dioxo-6-phenyl-thiazinan-2-yl]methyl]phenyl]-3-hydroxy-2-methyl-propanamide] |
